{"source": "paper PMC7481839", "about": "“Switchable foldamer ion channels with antibacterial activity” (Chemical Science, 2020)", "key": {"[1]": {"assay": "HPTS assay of ionophoric activity in phospholipid vesicles", "type": "biochemical", "conditions": "Table S1, HPTS assay", "description": "The membrane activity of 1, 2, Cu[1]Cl2 and Cu[2]Cl2 was assessed in phospholipid vesicle membranes using 8-hydroxypyrene-1,3,6-trisulfonate (HPTS) assays. HPTS assays can show ionophoric activity that occurs via any combination of M^+/H^+ antiport, X^–/OH^– antiport, M^+/OH^– symport and X^–/H^+ symport.\nThe HPTS assays of 1, 2, Cu[1]Cl2 and Cu[2]Cl2 used 1 : 4 cholesterol : egg yolk phosphatidylcholine (EYPC) vesicles in MOPS buffer (pH 7.4) with 100 mM of an appropriate salt (e.g. KCl, KBr, NaCl), following previously reported procedures.[16] The resulting normalised data were fitted to pseudo first-order rate equations as an approximation (see the ESI ^†).[32] Although the change in fluorescence after the “burst phase” is likely to arise from multiple processes, including inter-vesicle transfer of foldamers,[33] this fitting allows the relative effectiveness of each compound to be compared.\nCuCl2 was added at 2 min, followed by addition of 2.2 eq. EDTA at 3 min.\n5.1 Preparation of large unilamellar vesicles for HPTS assays\nThe HPTS assays of 1, 2, Cu[1]Cl2 and Cu[2]Cl2 used 1:4 cholesterol:egg yolk phosphatidylcholine (EYPC) vesicles in MOPS buffer (pH 7.4) with 100 mM of an appropriate salt (e.g. KCl, KBr, NaCl).5 Aliquots of 1, 2, Cu[1]Cl2 or Cu[2]Cl2 dissolved in methanol were mixed with the vesicle suspensions for 60 s before adding a base pulse to change the external pH to 8.4.6 The resulting change in HPTS fluorescence was followed for 6 min, then Triton X-100 was added at 7 min to lyse the vesicles […]. Each assay was repeated three times on new vesicles. The resulting normalized data were fitted to pseudo first-order rate equations as an approximation (see the ESI), similar to the procedure of Regen and co-workers.7 Although the change in fluorescence after the “burst phase” is likely to arise from multiple processes, including inter-vesicle transfer of foldamers,8 this fitting allows the relative effectiveness of each compound to be compared.\nEgg yolk phosphatidylcholine (EYPC, 64 μmol) and cholesterol (16 μmol) were dissolved in 2 mL chloroform (spectroscopic grade). The solvent was removed under reduced pressure resulting in a thin film of lipid on the inside wall of the round bottom flask, which was dried further under vacuum for 2 hours. 1.2 mL of a trisodium 8-hydroxypyrene-1,3,6-trisulfonate (HPTS, 100 mM, pH = 7.4) dye in (3-(N-morpholino) propanesulfonic acid) buffer (20 mM MOPS, 100 mM MX (M = K or Na, X = Cl, Br or NO3− adjusted to pH 7.4 using NaOH) were added to the lipid film. Afterwards, the thin film was detached from the sides of the flask by vortex mixing. The resulting lipid suspension was then extruded 19 times through an 800 nm polycarbonate membrane in an Avestin Liposofast extruder to give a suspension of 800 nm large unilamellar vesicles. Unencapsulated HPTS dye was removed by gel permeation chromatography on PD-10 SEC columns (Sephadex G-25). Hereby 1 mL of the 800 nm vesicle suspension was diluted to 2.5 mL with 20 mM MOPS buffer solution and loaded onto the GPC column. The suspension run onto the column, followed by 3.5 mL of 20 mM MOPS buffer, which were collected, giving a stock vesicle solution of 3.5 mL (final concentration of lipids = 15.23 mM). This solution of vesicles was used directly in the HPTS experiments.\n5.2 Procedure for HPTS assays\n100 μL of the vesicle stock solution was diluted to 2 mL with 20 mM MOPS buffer (final lipid concentration in cuvette 0.762 mM). To this vesicle suspension was then added 20 μL of the principle compound in methanol (1 mM or 0.6 mM for Cu[2]Cl2) and the cuvette was equipped with a stirrer bar. The cuvette was […]"}, "[2]": {"assay": "U-tube sodium picrate transport experiment", "conditions": "1 mM in chloroform, 20 mM MOPS, 100 mM NaCl, pH 7.4, 25 °C, after 24 h, UV at 356 nm", "description": "To assess if these compounds can act as cation carriers, U-tube experiments for sodium picrate transport were performed on 1, Cu(II)[1]Cl2 and Cu(II)[2]Cl2. […] Similarly, a U-tube experiment for chloride transport was performed using lucigenin.[4],[40]\n5.7 Preparation of large unilamellar vesicles for CF release assays\nA 50 mM 5(6)-carboxyfluorescein (CF) solution in MOPS buffer (20 mM MOPS, 100 mM NaCl, pH 7.4) was prepared by dissolving 5/6-CF in MOPS buffer, adding a sodium hydroxide (1M) solution dropwise until pH 11 was reached. The resulting solution was the slowly acidified to pH 7.4.\nEYPC-cholesterol (4:1) 800 nm vesicles were prepared as described above, using the above mentioned 5(6)-carboxyfluorescein (CF) (50 mM) solution. […]\nThe U-tube was incubated in a water bath at 25 °C and the chloroform phase was stirred at 300 rpm during the entire experiment, ensuring efficient diffusion of any potential carrier-ion complex to the receiving phase. Aliquots (1 mL) were taken from the receiving phase and analysed for the presence of picrate by UV spectroscopy (at 356 nm). […]\nFigure S11: U-tube metal picrate transport data for foldamer 1 (brown), Cu[2]Cl2 (black), Cu[1]Cl2 (green), and the control transporter, dibenzo-18-crown-6 (red). Absorbance at 356 nm. […]"}, "Solubility": {"assay": "Solubility", "type": "physicochemical", "source_text": "Mixing 1 or 2 with CuCl2 or CuCl provided green or blue complexes respectively. […] The blue complexes from the addition of CuCl gave very broad NMR spectra even after preparing fresh samples, which was ascribed to in situ oxidation of Cu(I); Cu(I)(TPA) complexes are very efficient one electron donors and will rapidly reduce alkyl halides[27] and oxygen.[28] Furthermore these blue products gave green solids when dried (see the ESI, Fig. S2 ^†).\nAlthough alamethicin is a very active channel former, its use in the clinic is hampered by its high haemolytic activity.[52] […] It is known that the haemolytic activity of amphipathic peptides, including alamethicin, decreases substantially on a reduction of peptide hydrophobicity and hydrophobic moment.[56]"}}, "note": "Where a SMILES comes first, the peptide text is derived from it."}
{"smiles": "CC(C)(C)OC(=O)C(C)(C)NC(=O)C(C)(C)NC(=O)C(C)(C)NC(=O)C(C)(C)NC(=O)C(C)(C)NC(=O)C(C)(C)NC(=O)C(C)(C)NC(=O)C(C)(C)n1cc(CN(Cc2ccccn2)Cc2ccccn2)nn1", "note": "[foldamer 1] (HELM PEPTIDE1{[CC(C)(C(=O)[*:2])n1cc(CN(Cc2ccccn2)Cc2ccccn2)nn1].[Aib].[Aib].[Aib].[Aib].[Aib].[Aib].[Aib].[CC(C)(C)O[*:1]]}$$$$V2.0)", "values": [{"measurement": "Apparent observed rate constant kobs, KBr", "setting": "[1]; 100 mM KBr, compound 10 µM", "result": "3.3 10−3 s−1"}, {"measurement": "Apparent observed rate constant kobs, KCl", "setting": "[1]; 100 mM KCl, compound 10 µM", "result": "3 10−3 s−1"}, {"measurement": "Apparent observed rate constant kobs, KNO3", "setting": "[1]; 100 mM KNO3, compound 10 µM", "result": "4 10−3 s−1"}, {"measurement": "Apparent observed rate constant kobs, NaCl", "setting": "[1]; 100 mM NaCl, compound 10 µM, methanol control 1 × 10−3 s−1", "result": "4 10−3 s−1"}, {"measurement": "sodium picrate transport across the bulk chloroform phase", "setting": "[2]", "result": "No transport across the bulk phase was observed"}, {"measurement": "solubility limit", "setting": "Solubility", "result": 20, "unit": "µM"}]}
